Results on 10 compounds are retold here after patent publication US20240270762A1, “PENICILLIN-BINDING PROTEIN INHIBITORS” (priority 2021, published 2024).

In test [1] the target is T1, PBP3 from Escherichia coli (K-12) (Escherichia coli, UniProt P0AD68).
T1 construct: made in house
In words: Bocillin-FL fluorescence polarization competition binding, E. coli PBP3. Summed up: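 Purified PBP was preincubated with inhibitor (E. coli PBP3 1.5 μM, 30 min; P. aeruginosa PBP3 0.75 μM, A. baumannii PBP3 0.2 μM and PBP1a 1 μM, 15 min), then Bocillin-FL (0.1 μM; 0.05 μM for PBP1a) added and FP read up to 60 min. EC50 = 50% loss of bound probe.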

The target in the next test is A. baumannii PBP2 (Acinetobacter baumannii, UniProt D0C8Z9). Briefly: Bocillin-FL competition binding via gel filtration, A. baumannii PBP2. Summed up: (§1)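 Competitive equilibrium binding; reporter Bocillin-FL. PBP + inhibitor (titration) pre-incubated → Bocillin-FL, 15 min → gel filtration → fluorescence. EC50 from Hill fit of fraction bound vs [inhibitor].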
The test system of another test is A. baumannii CDC-0033. In words: microbe, parasite or virus in culture. The test is classed as cell-based. The note with it: Acinetobacter baumannii, CDC0033, read-out: MIC, A. baumannii CDC-0033.
A further test deals with T2, A. baumannii PBP1a (Acinetobacter baumannii, UniProt A0ABX6CK30).
T2 sequence (A0ABX6CK30 1-851): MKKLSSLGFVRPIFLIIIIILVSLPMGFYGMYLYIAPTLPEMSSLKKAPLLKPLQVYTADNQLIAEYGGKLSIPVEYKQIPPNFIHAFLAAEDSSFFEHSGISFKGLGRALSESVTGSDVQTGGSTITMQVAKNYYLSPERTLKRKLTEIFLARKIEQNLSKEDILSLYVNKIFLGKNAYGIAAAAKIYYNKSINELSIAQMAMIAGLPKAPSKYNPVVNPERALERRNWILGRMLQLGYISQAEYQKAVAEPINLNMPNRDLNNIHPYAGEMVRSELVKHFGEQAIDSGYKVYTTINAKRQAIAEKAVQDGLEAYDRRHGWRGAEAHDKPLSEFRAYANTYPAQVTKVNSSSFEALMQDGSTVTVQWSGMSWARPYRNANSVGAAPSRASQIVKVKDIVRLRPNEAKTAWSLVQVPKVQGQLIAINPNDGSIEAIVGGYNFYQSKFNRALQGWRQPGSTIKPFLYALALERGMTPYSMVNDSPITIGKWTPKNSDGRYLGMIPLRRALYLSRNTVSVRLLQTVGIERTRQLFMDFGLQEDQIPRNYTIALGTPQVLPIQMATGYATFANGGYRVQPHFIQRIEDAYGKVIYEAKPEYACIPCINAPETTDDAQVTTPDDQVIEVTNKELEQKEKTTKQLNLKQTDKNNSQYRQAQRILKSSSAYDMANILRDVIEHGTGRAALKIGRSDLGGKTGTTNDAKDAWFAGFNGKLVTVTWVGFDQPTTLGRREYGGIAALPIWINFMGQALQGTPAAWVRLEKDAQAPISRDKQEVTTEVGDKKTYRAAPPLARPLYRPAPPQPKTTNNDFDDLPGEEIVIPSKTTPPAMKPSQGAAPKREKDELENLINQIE
Briefly: Bocillin-FL competition binding via gel filtration, A. baumannii PBP1a. The note with it: competition binding assay using Bocillin-FL via gel filtration; read-out: A. baumannii PBP1a Potency. Summed up:
as §1
(SEC sorts molecules by how far they enter the pores of the column.)

The next test deals with P. aeruginosa CDC-0095. Briefly: microbe, parasite or virus in culture. The test is classed as cell-based. The settings on record: Pseudomonas aeruginosa, CDC0095, read-out: Minimum inhibitory concentration, P. aeruginosa CDC-0095.
The test system of the next test is A. baumannii ATCC 19606. Briefly: microbe, parasite or virus in culture. The test is classed as cell-based. The settings on record: Acinetobacter baumannii, ATCC19606, read-out: MIC, A. baumannii ATCC 19606.

In brackets after ≈: the same amount, converted by molar mass.

Sequence of A. baumannii PBP2 (D0C8Z9 whole entry): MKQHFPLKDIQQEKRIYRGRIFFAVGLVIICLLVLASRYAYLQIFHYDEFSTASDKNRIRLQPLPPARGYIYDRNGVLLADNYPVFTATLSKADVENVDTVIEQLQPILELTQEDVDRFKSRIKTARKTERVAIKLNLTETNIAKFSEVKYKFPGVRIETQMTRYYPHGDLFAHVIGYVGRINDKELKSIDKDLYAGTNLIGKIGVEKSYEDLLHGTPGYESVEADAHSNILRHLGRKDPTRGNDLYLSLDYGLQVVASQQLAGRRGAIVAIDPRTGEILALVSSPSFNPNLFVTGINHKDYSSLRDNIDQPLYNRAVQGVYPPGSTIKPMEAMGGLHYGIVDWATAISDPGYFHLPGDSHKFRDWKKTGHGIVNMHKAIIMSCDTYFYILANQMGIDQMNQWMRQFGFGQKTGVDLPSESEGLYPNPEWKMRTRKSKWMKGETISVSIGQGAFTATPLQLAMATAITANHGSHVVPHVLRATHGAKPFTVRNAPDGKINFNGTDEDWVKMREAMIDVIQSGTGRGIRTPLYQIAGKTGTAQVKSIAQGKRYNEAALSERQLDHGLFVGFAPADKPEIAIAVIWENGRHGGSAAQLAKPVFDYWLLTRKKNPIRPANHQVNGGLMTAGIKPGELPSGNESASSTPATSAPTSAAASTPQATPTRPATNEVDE
T1 sequence (P0AD68 1-577): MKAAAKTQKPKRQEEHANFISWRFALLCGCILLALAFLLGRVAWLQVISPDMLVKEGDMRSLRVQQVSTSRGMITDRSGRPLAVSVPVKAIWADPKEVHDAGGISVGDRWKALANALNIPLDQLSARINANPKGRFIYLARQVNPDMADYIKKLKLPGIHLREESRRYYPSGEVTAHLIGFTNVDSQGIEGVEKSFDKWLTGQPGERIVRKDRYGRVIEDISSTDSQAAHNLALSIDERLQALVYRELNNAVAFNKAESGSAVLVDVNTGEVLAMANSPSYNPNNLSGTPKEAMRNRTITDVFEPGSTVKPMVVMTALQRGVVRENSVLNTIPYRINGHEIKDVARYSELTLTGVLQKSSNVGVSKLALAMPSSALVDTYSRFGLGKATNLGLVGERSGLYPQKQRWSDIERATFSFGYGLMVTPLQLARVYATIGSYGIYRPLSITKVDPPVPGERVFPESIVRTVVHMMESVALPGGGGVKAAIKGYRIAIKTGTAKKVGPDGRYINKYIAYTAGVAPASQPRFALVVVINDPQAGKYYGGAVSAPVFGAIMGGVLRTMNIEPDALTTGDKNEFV

With `O=C(NCCCN1CCN(C(=O)NC(C(=O)N[C@H]2Cc3ccc(F)c(C(=O)O)c3OB2O)c2cc(F)c(O)c(O)c2Cl)C(=O)C1=O)c1c(F)cncc1Cl` (stereo partly drawn) [Example 403, (3R)-3-(2-(2-chloro-5-fluoro-3,4-dihydroxyphenyl)-2-(4-(3-(3-chloro-5-fluoroisonicotinamido)propyl)-2,3-dioxopiperazine-1-carboxamido)acetamido)-7-fluoro-2-hydroxy-3,4-dihydro-2H-benzo[e][1,2]oxaborinine-8-carboxylic acid], the results for the EC50 (in test [1]; at A. baumannii PBP2; on A. baumannii PBP1a) were less than 10 µM, 10 to 50 µM and 10 to 50 µM, respectively. For the same compound, the MIC with A. baumannii CDC-0033 is 2 to 4 µg/mL (≈ 2.51 to 5.02 µM); with P. aeruginosa CDC-0095 it was 2 to 4 µg/mL (≈ 2.51 to 5.02 µM); in the test on A. baumannii ATCC 19606 it was less than 1 µg/mL.
On to `O=C(NCCCN1CCN(C(=O)NC(C(=O)N[C@H]2Cc3ccc(F)c(C(=O)O)c3OB2O)c2cc(F)c(O)c(O)c2Cl)C(=O)C1=O)c1cc(F)c(F)c(O)c1F` (stereo partly drawn) [Example 404, (3R)-3-(2-(2-chloro-5-fluoro-3,4-dihydroxyphenyl)-2-(2,3-dioxo-4-(3-(2,4,5-trifluoro-3-hydroxybenzamido)propyl)piperazine-1-carboxamido)acetamido)-7-fluoro-2-hydroxy-3,4-dihydro-2H-benzo[e][1,2]oxaborinine-8-carboxylic acid], for which the EC50 (in test [1]; on A. baumannii PBP2; at A. baumannii PBP1a) was less than 10 µM in each case. For the same compound, the MIC with A. baumannii CDC-0033 was 2 to 4 µg/mL (≈ 2.46 to 4.91 µM); in the test with P. aeruginosa CDC-0095 it was 2 to 4 µg/mL (≈ 2.46 to 4.91 µM); in the test with A. baumannii ATCC 19606 it was less than 1 µg/mL.
Turning to `O=C(NCCCN1CCN(C(=O)NC(C(=O)N[C@H]2Cc3ccc(F)c(C(=O)O)c3OB2O)c2cc(F)c(O)c(O)c2Cl)C(=O)C1=O)c1cccc(O)c1F` (stereo partly drawn) [Example 406, (3R)-3-(2-(2-chloro-5-fluoro-3,4-dihydroxyphenyl)-2-(4.-(3-(2-fluoro-3-hydroxybenzamido)propyl)-2,3-dioxopiperazine-1-carboxamido)acetamido)-7-fluoro-2-hydroxy-3,4-dihydro-2H-benzo[e][1,2]oxaborinine-8-carboxylic acid], the EC50 was less than 10 µM in test [1], 10 to 50 µM at A. baumannii PBP2 and less than 10 µM at A. baumannii PBP1a. For the same compound, the MIC in the test on A. baumannii CDC-0033 is 2 to 4 µg/mL (≈ 2.57 to 5.14 µM); in the test on P. aeruginosa CDC-0095 it was less than 1 µg/mL; with A. baumannii ATCC 19606, less than 1 µg/mL.
With `O=C(NCCCN1CCN(C(=O)NC(C(=O)N[C@H]2Cc3ccc(F)c(C(=O)O)c3OB2O)c2cc(F)c(O)c(O)c2Cl)C(=O)C1=O)c1cc(O)ccc1F` (stereo partly drawn) [Example 407, (3R)-3-(2-(2-chloro-5-fluoro-3,4-dihydroxyphenyl)-2-(4-(3-(2-fluoro-5-hydroxybenzamido)propyl)-2,3-dioxopiperazine-1-carboxamido)acetamido)-7-fluoro-2-hydroxy-3,4-dihydro-2H-benzo[e][1,2]oxaborinine-8-carboxylic acid], the values for the EC50 (in test [1]; on A. baumannii PBP2; at A. baumannii PBP1a) were less than 10 µM, 10 to 50 µM and less than 10 µM, respectively. For the same compound, the MIC in the test on A. baumannii CDC-0033 is 2 to 4 µg/mL (≈ 2.57 to 5.14 µM); with P. aeruginosa CDC-0095, 2 to 4 µg/mL (≈ 2.57 to 5.14 µM); with A. baumannii ATCC 19606, less than 1 µg/mL.
With `O=C(NCCCN1CCN(C(=O)NC(C(=O)N[C@H]2Cc3ccc(F)c(C(=O)O)c3OB2O)c2cc(F)c(O)c(O)c2Cl)C(=O)C1=O)c1cc(O)ccc1Cl` (stereo partly drawn) [Example 408, (3R)-3-(2-(2-chloro-5-fluoro-3,4-dihydroxyphenyl)-2-(4-(3-(2-chloro-5-hydroxybenzamido)propyl)-2,3-dioxopiperazine-1-carboxamido)acetamido)-7-fluoro-2-hydroxy-3,4-dihydro-2H-benzo[e][1,2]oxaborinine-8-carboxylic acid], the EC50 (in test [1]; on A. baumannii PBP2; on A. baumannii PBP1a) was less than 10 µM in each case. Moreover, the MIC is 2 to 4 µg/mL (≈ 2.52 to 5.04 µM) with A. baumannii CDC-0033, less than 1 µg/mL in the test on P. aeruginosa CDC-0095 and less than 1 µg/mL in the test with A. baumannii ATCC 19606.
For `O=C(NCCCN1CCN(C(=O)NC(C(=O)N[C@H]2Cc3ccc(F)c(C(=O)O)c3OB2O)c2cc(F)c(O)c(O)c2Cl)C(=O)C1=O)c1ccc(F)c(O)c1` (stereo partly drawn) [Example 409, (3R)-3-(2-(2-chloro-5-fluoro-3,4-dihydroxyphenyl)-2-(4-(3-(4-fluoro-3-hydroxybenzamido)propyl)-2,3-dioxopiperazine-1-carboxamido)acetamido)-7-fluoro-2-hydroxy-3,4-dihydro-2H-benzo[e][1,2]oxaborinine-8-carboxylic acid], the EC50 (in test [1]; at A. baumannii PBP2; at A. baumannii PBP1a) was less than 10 µM each time. Besides, the MIC with A. baumannii CDC-0033 was 2 to 4 µg/mL (≈ 2.57 to 5.14 µM); in the test with P. aeruginosa CDC-0095 it was 2 to 4 µg/mL (≈ 2.57 to 5.14 µM); in the test with A. baumannii ATCC 19606, less than 1 µg/mL.
As to `O=C(NCCCN1CCN(C(=O)NC(C(=O)N[C@H]2Cc3ccc(F)c(C(=O)O)c3OB2O)c2cc(F)c(O)c(O)c2Cl)C(=O)C1=O)c1cc(O)cc(F)c1` (stereo partly drawn) [Example 410, (3R)-3-(2-(2-chloro-5-fluoro-3,4-dihydroxyphenyl)-2-(4-(3-(3-fluoro-5-hydroxybenzamido)propyl)-2,3-dioxopiperazine-1-carboxamido)acetamido)-7-fluoro-2-hydroxy-3,4-dihydro-2H-benzo[e][1,2]oxaborinine-8-carboxylic acid], the EC50 (in test [1]; on A. baumannii PBP2; on A. baumannii PBP1a) was less than 10 µM each time. For the same compound, the MIC in the test with A. baumannii CDC-0033 was 2 to 4 µg/mL (≈ 2.57 to 5.14 µM); in the test with P. aeruginosa CDC-0095 it was 2 to 4 µg/mL (≈ 2.57 to 5.14 µM); in the test on A. baumannii ATCC 19606, less than 1 µg/mL.
For `O=C(NCCCN1CCN(C(=O)NC(C(=O)N[C@H]2Cc3ccc(F)c(C(=O)O)c3OB2O)c2cc(F)c(O)c(O)c2Cl)C(=O)C1=O)c1ccc(F)c(O)c1F` (stereo partly drawn) [Example 411, (3R)-3-(2-(2-chloro-5-fluoro-3,4-dihydroxyphenyl)-2-(4-(3-(2,4-difluoro-3-hydroxybenzamido)propyl)-2,3-dioxopiperazine-1-carboxamido)acetamido)-7-fluoro-2-hydroxy-3,4-dihydro-2H-benzo[e][1,2]oxaborinine-8-carboxylic acid], the EC50 (in test [1]; on A. baumannii PBP2; on A. baumannii PBP1a) was less than 10 µM each time. The results for the MIC in the test on A. baumannii CDC-0033, with P. aeruginosa CDC-0095 and in the test with A. baumannii ATCC 19606 were 8 to 16 µg/mL (≈ 10.1 to 20.1 µM), less than 1 µg/mL and less than 1 µg/mL, respectively.
Turning to `O=C(NCCCN1CCN(C(=O)NC(C(=O)N[C@H]2Cc3ccc(F)c(C(=O)O)c3OB2O)c2cc(F)c(O)c(O)c2Cl)C(=O)C1=O)c1ccc(F)c(O)c1Cl` (stereo partly drawn) [Example 412, (3R)-3-(2-(4-(3-(2-chloro-4-fluoro-3-hydroxybenzamido)propyl)-2,3-dioxopiperazine-1-carboxamido)-2-(2-chloro-5-fluoro-3,4-dihydroxyphenyl)acetamido)-7-fluoro-2-hydroxy-3,4-dihydro-2H-benzo[e][1,2]oxaborinine-8-carboxylic acid], the EC50 (in test [1]; at A. baumannii PBP2; on A. baumannii PBP1a) was less than 10 µM each time. Besides, the MIC in the test with A. baumannii CDC-0033 was 8 to 16 µg/mL (≈ 9.85 to 19.7 µM); in the test with P. aeruginosa CDC-0095, 2 to 4 µg/mL (≈ 2.46 to 4.92 µM); with A. baumannii ATCC 19606 it was less than 1 µg/mL.
Take `O=C(NCCCN1CCN(C(=O)NC(C(=O)N[C@H]2Cc3ccc(F)c(C(=O)O)c3OB2O)c2cc(F)c(O)c(O)c2Cl)C(=O)C1=O)c1c(F)ccc(O)c1F` (stereo partly drawn) [Example 413, (3R)-3-(2-(2-chloro-5-fluoro-3,4-dihydroxyphenyl)-2-(4-(3-(2,6-difluoro-3-hydroxybenzamido)propyl)-2,3-dioxopiperazine-1-carboxamido)acetamido)-7-fluoro-2-hydroxy-3,4-dihydro-2H-benzo[e][1,2]oxaborinine-8-carboxylic acid]: the results for the EC50 (in test [1]; on A. baumannii PBP2; at A. baumannii PBP1a) were less than 10 µM, 10 to 50 µM and less than 10 µM, respectively. Also, the MIC is 2 to 4 µg/mL (≈ 2.51 to 5.03 µM) in the test with A. baumannii CDC-0033, less than 1 µg/mL with P. aeruginosa CDC-0095 and less than 1 µg/mL in the test on A. baumannii ATCC 19606.
